# Patent EP4104902B1, “COMPOUNDS AND M[…] SAME” (priority 2020, dated 2021)
# System: recombinant rabies virus 1088 strain expressing Gaussia Luciferase (GLuc) (1088/GLuc)
# Type: cell-based
# Conditions: read-out: Anti-rabies activity
row,SMILES,IC50
1,N=C(N)NCCCNC(=O)[C@]12NC[C@@H]3C[C@H]1CN(Cc1ccccc1)[C@H]2[C@@H]3Cc1ccccc1 (relative stereo) [IB-276],10 to 30 µM
2,N=C(N)NCCCN1C[C@@H]2C[C@H]3CN[C@]2(C(=O)NCCc2ccccc2)[C@@H]1[C@@H]3Cc1cccc2ccccc12 (relative stereo) [IB-327],10 to 30 µM
3,CC(C)CC[C@@H]1[C@@H]2CN[C@@]3(C(=O)NCC(C)C)[C@@H](C2)CN(CC(C)C)[C@@H]13 (relative stereo) [IB-378],< 5 µM
4,CC(C)CC1C2C=NC3(C(=O)NCc4ccccc4)C(C2)CN(Cc2ccc(N(C)C)cc2)C13 (stereo not drawn) [IIB-94],5 to 10 µM
5,CC(C)CC[C@@H]1[C@@H]2[C@@H]3CN[C@@]1(C(=O)NCc1ccccc1)C[C@@H]3CN2CC1CCCCC1 (relative stereo) [IF-740],10 to 30 µM
6,CC(C)C[C@@H]1[C@@H]2[C@@H]3CN[C@@]1(C(=O)NCc1ccc(O)cc1)C[C@@H]3CN2Cc1cccc2ccccc12 (relative stereo) [IF-473],< 5 µM
7,CC(C)CC[C@@H]1[C@@H]2[C@@H]3CN[C@@]1(C(=O)NCCc1ccccc1)C[C@@H]3CN2CC(C)C (relative stereo) [IF-727],< 5 µM
8,CC(C)C[C@@H]1[C@@H]2CN[C@@]3(C(=O)NCc4ccc(O)cc4)[C@@H](C2)CN(Cc2ccc(F)cc2)[C@@H]13 (relative stereo) [IB-458],10 to 30 µM
9,CC(C)CN1CC2CC3(C(=O)NCCC(=O)O)NCC2C1C3Cc1cccc2ccccc12 (stereo not drawn) [IF-428],10 to 30 µM
10,CC(C)CCN1C[C@H]2C[C@]3(C(=O)NCc4ccc(O)cc4)NC[C@H]2[C@H]1[C@H]3Cc1ccccc1 (relative stereo) [IF-466],10 to 30 µM
11,"CC(C)C[C@@H]1[C@@H]2CN[C@@]3(C(=O)NCc4cccc5ccccc45)[C@@H](C2)CN(CCCNC(=N)N)[C@@H]13 (relative stereo) [IB-164, (3S*, 3aS*, 6R*, 7R*, 7aS*)-1-(3-guanidinopropyl)-7-isobutyl-N-(naphthalen-1-ylmethyl)octahydro-3aH-3,6-methanopyrrolo[3,2-b]pyridine-3a-carboxamide]",< 5 µM
12,CC(C)CCN1C[C@H]2C[C@]3(C(=O)NCC(C)C)NC[C@H]2[C@H]1[C@H]3Cc1ccccc1 (relative stereo) [IF-735],10 to 30 µM
13,O=C(NCCO)[C@]12NC[C@@H]3C[C@H]1CN(CCc1ccccc1)[C@H]2[C@@H]3Cc1ccccc1 (relative stereo) [IB-640],< 5 µM
14,CC(C)CC1C2CNC3(C(=O)NCc4ccc(F)cc4)C(C2)CN(Cc2ccc(O)cc2)C13 (stereo not drawn) [IB-499],< 5 µM
15,CCCCCCNC(=O)[C@@]12C[C@@H]3CN(Cc4cccc5ccccc45)[C@@H]([C@@H]3CN1)[C@H]2CCCNC(=N)N (relative stereo) [IF-243],< 5 µM
16,NC(=O)CN1CC2CC3(C(=O)NCCc4ccccc4)NCC2C1C3Cc1cccc2ccccc12 (stereo not drawn) [IF-90],10 to 30 µM
17,"CC(C)CNC(=O)[C@]12N=C[C@@H]3C[C@H]1CN(Cc1ccccc1)[C@H]2[C@@H]3CC(C)C (relative stereo) [IIB-4, (3S*,3aS*,6R*,7R*,7aS*)-1-benzyl-N,7-diisobutyl-1,2,3,6,7,7a-hexahydro-3aH-3,6-methanopyrrolo[3,2-b]pyridine-3a-carboxamide]",5 to 10 µM
18,NC(=O)CCNC(=O)C12NCC3CC1CN(Cc1ccccc1)C2C3Cc1ccccc1 (stereo not drawn) [IB-734],10 to 30 µM
19,CC(C)CC[C@@H]1[C@@H]2[C@@H]3CN[C@@]1(C(=O)NCc1ccc(O)cc1)C[C@@H]3CN2Cc1ccc(F)cc1 (relative stereo) [IF-479],< 5 µM
20,CC(C)C[C@@H]1[C@@H]2CN[C@@]3(C(=O)NCc4ccc(O)cc4)[C@@H](C2)CN(Cc2ccccc2)[C@@H]13 (relative stereo) [IB-464],< 5 µM
21,CCCCCCNC(=O)[C@@]12C[C@@H]3CN(CC4CCCCC4)[C@@H]([C@@H]3CN1)[C@H]2CCCNC(=N)N (relative stereo) [IF-260],10 to 30 µM

row,SMILES,IC50
1,CCCCCCNC(=O)[C@@]12C[C@@H]3CN(CCC(C)C)[C@@H]([C@@H]3CN1)[C@H]2CC(C)C (relative stereo) [IF-546],10 to 30 µM
2,CC(C)CC1C2CNC3(C(=O)NCc4ccc(Cl)cc4)C(C2)CN(CC(C)C)C13 (stereo not drawn) [IB-871],10 to 30 µM
3,CC(C)CN1C[C@@H]2C[C@H]3CN[C@]2(C(=O)NCCC(N)=O)[C@@H]1[C@@H]3CCc1ccccc1 (relative stereo) [IB-539],10 to 30 µM
4,CC(C)CCN1CC2CC3CNC2(C(=O)NCc2cccc4ccccc24)C1C3CO (stereo not drawn) [IB-426],< 5 µM
5,O=C(O)CCN1CC2CC3CNC2(C(=O)NCc2ccc(O)cc2)C1C3Cc1cccc2ccccc12 (stereo not drawn) [IB-516],10 to 30 µM
6,CC(C)CN1C[C@H]2C[C@]3(C(=O)NCc4ccc(F)cc4)NC[C@H]2[C@H]1[C@H]3CCc1ccccc1 (relative stereo) [IF-525],10 to 30 µM
7,O=C(NCc1ccc(O)cc1)[C@@]12C[C@@H]3CN(Cc4ccccc4)[C@@H]([C@@H]3CN1)[C@H]2CCc1ccccc1 (relative stereo) [IF-565],< 5 µM
8,N=C(N)NCCC[C@@H]1[C@@H]2[C@@H]3CN[C@@]1(C(=O)NCCO)C[C@@H]3CN2Cc1cccc2ccccc12 (relative stereo) [IF-239],10 to 30 µM
9,O=C(NCCO)[C@@]12C[C@@H]3CN(Cc4ccccc4)[C@@H]([C@@H]3CN1)[C@H]2Cc1cccc2ccccc12 (relative stereo) [IF-624],10 to 30 µM
10,O=C(NCc1ccccc1)[C@@]12C[C@@H]3CN(Cc4cccc5ccccc45)[C@@H]([C@@H]3CN1)[C@H]2Cc1ccccc1 (relative stereo) [IF-42],10 to 30 µM
11,O=C(O)CCC1C2CNC3(C(=O)NCc4cccc5ccccc45)C(C2)CN(Cc2ccc(F)cc2)C13 (stereo not drawn) [IB-390],10 to 30 µM
12,CC(C)CC[C@@H]1[C@@H]2CN[C@@]3(C(=O)NCCCNC(=N)N)[C@@H](C2)CN(CCc2ccccc2)[C@@H]13 (relative stereo) [IB-346],10 to 30 µM
13,CC(C)C[C@@H]1[C@@H]2[C@@H]3CN[C@@]1(C(=O)NCCc1ccccc1)C[C@@H]3CN2Cc1ccc(F)cc1 (relative stereo) [IF-714],< 5 µM
14,CC(C)CN1CC2CC3(C(=O)NCc4ccc(F)cc4)NCC2C1C3Cc1ccccc1 (stereo not drawn) [IF-815],< 5 µM
15,CC(C)C[C@@H]1[C@@H]2CN[C@@]3(C(=O)NCCc4ccccc4)[C@@H](C2)CN(Cc2ccc(O)cc2)[C@@H]13 (relative stereo) [IB-540],10 to 30 µM
16,CC(C)C[C@@H]1[C@@H]2[C@@H]3CN[C@@]1(C(=O)NCCO)C[C@@H]3CN2CC1CCCCC1 (relative stereo) [IF-606],10 to 30 µM
17,CC(C)CCN1C[C@H]2C[C@]3(C(=O)NCc4ccc(O)cc4)NC[C@H]2[C@H]1[C@H]3CCc1ccccc1 (relative stereo) [IF-464],10 to 30 µM
18,Cc1ccc(CN2CC3CC4CNC3(C(=O)NCc3ccccc3)C2C4CC(C)C)cc1 (stereo not drawn) [IB-867],5 to 10 µM
19,CC(C)CCC1C2C3CNC1(C(=O)NCc1ccc(O)cc1)CC3CN2CCC(=O)O (stereo not drawn) [IF-458],10 to 30 µM
20,CC(C)CC1C2CNC3(C(=O)NCc4ccccc4)C(C2)CN(Cc2cccc(Cl)c2)C13 (stereo not drawn) [IB-865],5 to 10 µM
21,CC(C)CNC(=O)[C@]12NC[C@@H]3C[C@H]1CN(CCC(=O)O)[C@H]2[C@@H]3Cc1cccc2ccccc12 (relative stereo) [IB-575],10 to 30 µM

row,SMILES,IC50
1,CCCCCCNC(=O)[C@]12NC[C@@H]3C[C@H]1CN(Cc1ccccc1)[C@H]2[C@@H]3CCCNC(=N)N (relative stereo) [IB-249],10 to 30 µM
2,NC(=O)CN1C[C@@H]2C[C@H]3CN[C@]2(C(=O)NCc2ccc(F)cc2)[C@@H]1[C@@H]3CCc1ccccc1 (relative stereo) [IB-95],< 5 µM
3,CC(C)CCN1C[C@H]2C[C@]3(C(=O)NCc4ccc(F)cc4)NC[C@H]2[C@H]1[C@H]3CC(C)C (relative stereo) [IF-548],10 to 30 µM
4,CC(C)C[C@@H]1[C@@H]2[C@@H]3CN[C@@]1(C(=O)NCCc1ccccc1)C[C@@H]3CN2Cc1ccccc1 (relative stereo) [IF-721],< 5 µM
5,CC(C)CNC(=O)[C@]12NC[C@@H]3C[C@H]1CN(Cc1cccc4ccccc14)[C@H]2[C@@H]3Cc1ccc(O)cc1 (relative stereo) [IB-763],10 to 30 µM
6,N=C(N)NCCCN1C[C@@H]2C[C@H]3CN[C@]2(C(=O)NCc2ccc(F)cc2)[C@@H]1[C@@H]3Cc1ccccc1 (relative stereo) [IB-182],10 to 30 µM
7,CC(C)CNC(=O)[C@]12NC[C@@H]3C[C@H]1CN(Cc1ccc(F)cc1)[C@H]2[C@@H]3Cc1ccc(O)cc1 (relative stereo) [IB-631],10 to 30 µM
8,CC(C)CNC(=O)C12NCC3CC1CN(Cc1ccc(O)cc1)C2C3CCCNC(=N)N (stereo not drawn) [IB-203],10 to 30 µM
9,CC(C)CCNC(=O)C12NCC3CC1CN(CC(C)C)C2C3Cc1ccccc1 (stereo not drawn) [IB-870],10 to 30 µM
10,CC(C)CC1C2C3C=NC1(C(=O)NCc1ccccc1)CC3CN2Cc1ccc(C(C)(C)C)cc1 (stereo not drawn) [IIF-95],< 5 µM
11,CC(C)C[C@@H]1[C@@H]2CN[C@@]3(C(=O)NCCCNC(=N)N)[C@@H](C2)CN(Cc2cccc4ccccc24)[C@@H]13 (relative stereo) [IB-350],10 to 30 µM
12,CC(C)CN1CC2CC3CNC2(C(=O)NCCC(N)=O)C1C3Cc1cccc2ccccc12 (stereo not drawn) [IB-737],10 to 30 µM
13,CCCCCCNC(=O)C12NCC3CC1CN(CCO)C2C3CC(C)C (stereo not drawn) [IB-477],< 5 µM
14,CC(C)CCN1CC2CC3CNC2(C(=O)NCc2ccccc2)C1C3Cc1ccc(O)cc1 (stereo not drawn) [IB-749],10 to 30 µM
15,NC(=O)CCNC(=O)[C@@]12C[C@@H]3CN(CC4CCCCC4)[C@@H]([C@@H]3CN1)[C@H]2Cc1cccc2ccccc12 (relative stereo) [IF-536],< 5 µM
16,O=C(NCCO)[C@]12NC[C@@H]3C[C@H]1CN(CC1CCCCC1)[C@H]2[C@@H]3CCc1ccccc1 (relative stereo) [IB-663],< 5 µM
17,CC(C)CCNC(=O)[C@@]12C[C@@H]3CN(CCc4ccccc4)[C@@H]([C@@H]3CN1)[C@H]2Cc1ccccc1 (relative stereo) [IF-744],< 5 µM
18,CC(C)CNC(=O)[C@]12NC[C@@H]3C[C@H]1CN(CCO)[C@H]2[C@@H]3Cc1cccc2ccccc12 (relative stereo) [IB-621],< 5 µM
19,O=C(O)CCNC(=O)C12CC3CN(CC4CCCCC4)C(C3CN1)C2Cc1cccc2ccccc12 (stereo not drawn) [IF-416],10 to 30 µM
20,O=C(O)CCNC(=O)C12CC3CN(Cc4ccc(F)cc4)C(C3CN1)C2Cc1cccc2ccccc12 (stereo not drawn) [IF-417],10 to 30 µM

# Same assay, conditions: read-out: IC50
row,SMILES,IC50
1,"CC(C)CNC(=O)[C@]12N=C[C@@H]3C[C@H]1CN(Cc1ccccc1)[C@H]2[C@@H]3CC(C)C (relative stereo) [IIB-4, (3S*,3aS*,6R*,7R*,7aS*)-1-benzyl-N,7-diisobutyl-1,2,3,6,7,7a-hexahydro-3aH-3,6-methanopyrrolo[3,2-b]pyridine-3a-carboxamide]",8.9 µM
